Measurements: patent publication US9650379B2 (CHONG KUN DANG PHARMACEUTICAL CORP., priority 2013, dated 2017)

How the values were obtained:
HDAC6 human recombinant = biological target: T1, HDAC6 human recombinant (Homo sapiens, UniProt Q9UBN7); assay: Inhibition of HDAC6 activity (fluorimetric assay); assay type: biochemical; conditions: test concentrations 0.1, 1, 10, 100 and 1000 nM; 37° C., 60 minutes
T1 construct: purchased Calbiochem 382180
T1 sequence (Q9UBN7 1-1215): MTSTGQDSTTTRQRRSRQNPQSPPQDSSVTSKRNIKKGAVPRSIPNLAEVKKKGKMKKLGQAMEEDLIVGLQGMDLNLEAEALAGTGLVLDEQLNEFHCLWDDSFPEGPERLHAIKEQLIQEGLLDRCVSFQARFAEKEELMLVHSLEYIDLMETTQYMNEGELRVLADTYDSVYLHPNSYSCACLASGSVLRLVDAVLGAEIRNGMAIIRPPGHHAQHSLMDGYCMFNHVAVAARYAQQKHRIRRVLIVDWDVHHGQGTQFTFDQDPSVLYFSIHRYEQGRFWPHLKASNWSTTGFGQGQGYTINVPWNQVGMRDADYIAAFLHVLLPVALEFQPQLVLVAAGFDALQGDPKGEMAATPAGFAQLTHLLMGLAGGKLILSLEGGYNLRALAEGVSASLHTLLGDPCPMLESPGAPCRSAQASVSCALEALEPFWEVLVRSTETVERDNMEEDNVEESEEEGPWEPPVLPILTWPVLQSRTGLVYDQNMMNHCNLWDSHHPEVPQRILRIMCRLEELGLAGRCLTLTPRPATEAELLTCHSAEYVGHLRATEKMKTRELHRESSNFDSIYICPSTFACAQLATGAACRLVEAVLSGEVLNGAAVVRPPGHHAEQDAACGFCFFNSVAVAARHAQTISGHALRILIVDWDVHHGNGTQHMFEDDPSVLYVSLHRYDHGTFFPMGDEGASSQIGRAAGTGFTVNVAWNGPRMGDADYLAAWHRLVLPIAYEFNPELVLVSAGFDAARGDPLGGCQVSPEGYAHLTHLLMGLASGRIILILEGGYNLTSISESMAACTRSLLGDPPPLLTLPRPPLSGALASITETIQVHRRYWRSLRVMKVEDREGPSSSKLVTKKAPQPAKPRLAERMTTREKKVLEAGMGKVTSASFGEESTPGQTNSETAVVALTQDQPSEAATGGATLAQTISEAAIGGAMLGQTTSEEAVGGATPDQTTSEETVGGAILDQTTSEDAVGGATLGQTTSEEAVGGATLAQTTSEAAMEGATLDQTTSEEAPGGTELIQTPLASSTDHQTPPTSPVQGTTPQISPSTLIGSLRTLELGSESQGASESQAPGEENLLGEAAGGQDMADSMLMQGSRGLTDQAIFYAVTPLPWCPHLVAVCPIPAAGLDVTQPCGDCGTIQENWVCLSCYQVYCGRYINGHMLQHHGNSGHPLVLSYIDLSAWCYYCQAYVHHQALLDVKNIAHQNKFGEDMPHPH
In short: (§1)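 HDAC1 tested with the kit assay mixture at 100, 1000 and 10000 nM compound; recombinant human HDAC6 at 0.1, 1, 10, 100 and 1000 nM. Reaction ran 60 min at 37° C, then developer was added for 30 min at 37° C and fluorescence quantified.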

HDAC1 = biological target: T2, HDAC1 (Homo sapiens, UniProt Q13547); assay: Inhibition of HDAC1 activity (HDAC1 fluorimetric drug discovery assay kit); assay type: biochemical; conditions: test concentrations 100, 1000 and 10000 nM; 37° C., 60 minutes
T2 construct: purchased Enzolifesciences BML-AK511
In short: as §1

T2 sequence (Q13547 whole entry): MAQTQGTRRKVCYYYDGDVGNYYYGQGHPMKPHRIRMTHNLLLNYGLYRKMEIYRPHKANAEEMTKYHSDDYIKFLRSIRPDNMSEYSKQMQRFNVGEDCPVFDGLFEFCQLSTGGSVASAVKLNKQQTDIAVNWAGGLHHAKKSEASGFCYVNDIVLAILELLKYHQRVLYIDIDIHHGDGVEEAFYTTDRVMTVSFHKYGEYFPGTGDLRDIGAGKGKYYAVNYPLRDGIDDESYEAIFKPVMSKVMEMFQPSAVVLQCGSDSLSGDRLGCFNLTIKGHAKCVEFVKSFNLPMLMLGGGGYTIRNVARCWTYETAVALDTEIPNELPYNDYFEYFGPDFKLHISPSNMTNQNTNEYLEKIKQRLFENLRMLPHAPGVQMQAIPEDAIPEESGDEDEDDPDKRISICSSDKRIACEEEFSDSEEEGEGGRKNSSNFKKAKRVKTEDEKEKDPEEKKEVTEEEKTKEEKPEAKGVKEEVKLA

| SMILES | IC50 (HDAC6 human recombinant) | IC50 (HDAC1) |
| --- | --- | --- |
| O=C(NO)c1ccc(Cn2ccc3c(N4CCN(c5cnc(C(F)(F)F)cn5)CC4)ccnc32)cc1 [Compound 701, N-hydroxy-4-((4-(4-(5-(trifluoromethyl)pyrazin-2-yl)piperazin-1-yl)-1H-pyrrolo[2,3-b]pyridin-1-yl)methyl)benzamide] | 23 nM | 1530 nM |
| O=C(NO)c1ccc(Cn2ccc3c(N4CCN(Cc5ccncc5)CC4)ccnc32)cc1 [Compound 850, N-hydroxy-4-((4-(4-(pyridin-4-ylmethyl)piperazin-1-yl)-1H-pyrrolo[2,3-b]pyridin-1-yl)methyl)benzamide] | 4.4 nM | 220 nM |
| O=C(NO)c1ccc(Cn2ccc3cc(-c4ccccc4)cnc32)cc1 [Compound 645, N-hydroxy-4-((5-phenyl-1H-pyrrolo[2,3-b]pyridin-1-yl)methyl)benzamide] | 17 nM | 3050 nM |
| CC(C)(C)OC(=O)N1CC=C(c2cnc3c(ccn3Cc3ccc(C(=O)NO)cc3)c2)CC1 [Compound 692, tert-butyl 4-(1-(4-(hydroxycarbamoyl)benzyl)-1H-pyrrolo[2,3-b]pyridin-5-yl)-5,6-dihydropyridine-1(2H)-carboxylate] | 8 nM | 3430 nM |
| O=C(NO)c1ccc(Cn2ccc3cc(C4CCN(Cc5ccccc5)CC4)cnc32)cc1 [Compound 804, 4-((5-(1-benzylpiperidin-4-yl)-1H-pyrrolo[2,3-b]pyridin-1-yl)methyl)-N-hydroxybenzamide] | 58 nM | 1980 nM |
| Nc1cccc(-c2ccnc3c2ccn3Cc2ccc(C(=O)NO)cc2)c1 [Compound 722, 4-((4-(3-aminophenyl)-1H-pyrrolo[2,3-b]pyridin-1-yl)methyl)-N-hydroxybenzamide] | 3 nM | 270 nM |
| CC(C)N1CCN(c2ccnc3c2ccn3Cc2ccc(C(=O)NO)cc2)CC1 [Compound 225, N-hydroxy-4-((4-(4-isopropylpiperazin-1-yl)-1H-pyrrolo[2,3-b]pyridin-1-yl)methyl)benzamide] | 3 nM | 410 nM |
| O=C(NO)c1ccc(Cn2ccc3cc(N4CCN(Cc5ccccc5)CC4)cnc32)cc1 [Compound 806, 4-((5-(4-benzylpiperazin-1-yl)-1H-pyrrolo[2,3-b]pyridin-1-yl)methyl)-N-hydroxybenzamide] | 6.7 nM | 680 nM |
| O=C(NO)c1ccc(Cn2ccc3cc(N4CCOCC4)cnc32)cc1 [Compound 787, N-hydroxy-4-((5-morpholino-1H-pyrrolo[2,3-b]pyridin-1-yl)methyl)benzamide] | 24.9 nM | 2780 nM |
| O=C(NO)c1ccc(Cn2ccc3c(N4CCN(Cc5ccccc5)CC4)ccnc32)cc1 [Compound 704, 4-((4-(4-benzylpiperazin-1-yl)-1H-pyrrolo[2,3-b]pyridin-1-yl)methyl)-N-hydroxybenzamide] | 9 nM | 620 nM |
| CN1CCN(c2ccnc3c2ccn3Cc2ccc(C(=O)NO)cc2)CC1 [Compound 224, N-hydroxy-4-((4-(4-methylpiperazin-1-yl)-1H-pyrrolo[2,3-b]pyridin-1-yl)methyl)benzamide] | 2 nM | 180 nM |
| CC(C)(C)OC(=O)N1CC=C(c2cc3c(ccn3Cc3ccc(C(=O)NO)cc3)cn2)CC1 [Compound 783, tert-butyl 4-(1-(4-(hydroxycarbamoyl)benzyl)-1H-pyrrolo[3,2-c]pyridin-6-yl)-5,6-dihydropyridine-1(2H)-carboxylate] | 12 nM | 450 nM |
| O=C(NO)c1ccc(Cn2ccc3c(N4CCN(Cc5ccccc5F)CC4)ccnc32)cc1 [Compound 847, 4-((4-(4-(2-fluorobenzyl)piperazin-1-yl)-1H-pyrrolo[2,3-b]pyridin-1-yl)methyl)-N-hydroxybenzamide] | 5.6 nM | 600 nM |
| O=C(NO)c1ccc(Cn2ccc3cc(C4=CCN(CC5CCCCC5)CC4)cnc32)cc1 [Compound 721, 4-((5-(1-(cyclohexylmethyl)-1,2,3,6-tetrahydropyridin-4-yl)-1H-pyrrolo[2,3-b]pyridin-1-yl)methyl)-N-hydroxybenzamide] | 19 nM | 1320 nM |

The remaining lines, values ahead:

| IC50 (HDAC6 human recombinant) | IC50 (HDAC1) | SMILES |
| --- | --- | --- |
| 18.5 nM | 690 nM | O=C(NO)c1ccc(Cn2ccc3cc(C4CCN(Cc5ccc(-n6cnnc6)cc5)CC4)cnc32)cc1 [Compound 874, 4-((5-(1-(4-(4H-1,2,4-triazol-4-yl)benzyl)piperidin-4-yl)-1H-pyrrolo[2,3-b]pyridin-1-yl)methyl)-N-hydroxybenzamide] |
| 12 nM | 900 nM | COc1ccc(CN2CCC(c3ccnc4c3ccn4Cc3ccc(C(=O)NO)cc3)CC2)cc1 [Compound 959, N-hydroxy-4-((4-(1-(4-methoxybenzyl)piperidin-4-yl)-1H-pyrrolo[2,3-b]pyridin-1-yl)methyl)benzamide] |
| 11.5 nM | 420 nM | CN1CCN(Cc2cccc(CN3CCC(c4ccnc5c4ccn5Cc4ccc(C(=O)NO)cc4)CC3)c2)CC1 [Compound 986, N-hydroxy-4-((4-(1-(3-((4-methylpiperazin-1-yl)methyl)benzyl)piperidin-4-yl)-1H-pyrrolo[2,3-b]pyridin-1-yl)methyl)benzamide] |
| 6.2 nM | 780 nM | CN1CCN(Cc2ccc(C(=O)N3CCC(c4cnc5c(ccn5Cc5ccc(C(=O)NO)cc5)c4)CC3)cc2)CC1 [Compound 898, N-hydroxy-4-((5-(1-(4-((4-methylpiperazin-1-yl)methyl)benzoyl)piperidin-4-yl)-1H-pyrrolo[2,3-b]pyridin-1-yl)methyl)benzamide] |
| 6.8 nM | 260 nM | O=C(NO)c1ccc(Cn2ccc3c(N4CC5CCC(C4)N5Cc4cccnc4)ccnc32)cc1 [Compound 1019, N-hydroxy-4-((4-(8-(pyridin-3-ylmethyl)-3,8-diazabicyclo[3.2.1]octan-3-yl)-1H-pyrrolo[2,3-b]pyridin-1-yl)methyl)benzamide] |
| 5.5 nM | 750 nM | C[C@@H]1CN(c2cnc3c(ccn3Cc3ccc(C(=O)NO)cc3)c2)C[C@H](C)N1Cc1ncccn1 [Compound 1005, 4-((5-((3S,5R)-3,5-dimethyl-4-(pyrimidin-2-ylmethyl)-1-yl)-1H-pyrrolo[2,3-b]pyridin-1-yl)methyl)-N-hydroxybenzamide] |
| 12 nM | 1630 nM | C[C@@H]1CN(c2cnc3c(ccn3Cc3ccc(C(=O)NO)cc3)c2)C[C@H](C)N1CC(C)(C)F [Compound 866, 4-((5-((3S,5R)-4-(2-fluoro-2-methylpropyl)-3,5-dimethylpiperazin-1-yl)-1H-pyrrolo[2,3-b]pyridin-1-yl)methyl)-N-hydroxybenzamide] |
| 32.4 nM | 2320 nM | O=C(NO)c1ccc(Cn2ccc3cc(C4CCN(Cc5ccc(-c6ccco6)cc5)CC4)cnc32)cc1 [Compound 875, 4-((5-(1-(4-(furan-2-yl)benzyl)piperidin-4-yl)-1H-pyrrolo[2,3-b]pyridin-1-yl)methyl)-N-hydroxybenzamide] |
| 3.6 nM | 60 nM | CC(C)(F)C(=O)N1CCC(c2ccnc3c2ccn3Cc2ccc(C(=O)NO)cc2)CC1 [Compound 858, 4-((4-(1-(2-fluoro-2-methylpropanoyl)piperidin-4-yl)-1H-pyrrolo[2,3-b]pyridin-1-yl)methyl)-N-hydroxybenzamide] |
| 5 nM | 350 nM | CC(C)(F)C(=O)N1CCC(c2cnc3c(ccn3Cc3ccc(C(=O)NO)cc3)c2)CC1 [Compound 854, 4-((5-(1-(2-fluoro-2-methylpropanoyl)piperidin-4-yl)-1H-pyrrolo[2,3-b]pyridin-1-yl)methyl)-N-hydroxybenzamide] |
| 18 nM | 1740 nM | CC(C)(C)CCN1CCC(c2cnc3c(ccn3Cc3ccc(C(=O)NO)cc3)c2)CC1 [Compound 864, 4-((5-(1-(3,3-dimethylbutyl)piperidin-4-yl)-1H-pyrrolo[2,3-b]pyridin-1-yl)methyl)-N-hydroxybenzamide] |
